# Experimental data from ChEMBL document CHEMBL1122929, “6,7-Dihydro-5-[[(cis-2-hydroxy-trans-3-phenoxycyclopentyl)amino] methyl]-2-methylbenzo[b]thiophen-4(5H)-one: a novel alpha 1-adrenergic receptor antagonist and renal vasodilator” (J Med Chem, 1985).
# Activity calls are given as the source filed them. The rule behind the calls is not given here.
# How the values were obtained:
# Canis familiaris [1] = assay: Renal blood flow was determined at cumulative dose of 0.01 mg/kg in anesthetized dogs by intravenous administration after SCH 23390 pretreatment; assay type: functional, Canis lupus familiaris, Kidney
# [2] = molecular target: T1, Adrenergic receptor alpha-1 (Rattus norvegicus, UniProt P15823+P23944+P43140); assay: Ability to inhibit 50% specific binding of [3H]prazosin radioligand to alpha-1 adrenergic receptor in rat cerebrocortex; assay type: tissue-based, Cortex
# T1 sequence (P15823 whole entry): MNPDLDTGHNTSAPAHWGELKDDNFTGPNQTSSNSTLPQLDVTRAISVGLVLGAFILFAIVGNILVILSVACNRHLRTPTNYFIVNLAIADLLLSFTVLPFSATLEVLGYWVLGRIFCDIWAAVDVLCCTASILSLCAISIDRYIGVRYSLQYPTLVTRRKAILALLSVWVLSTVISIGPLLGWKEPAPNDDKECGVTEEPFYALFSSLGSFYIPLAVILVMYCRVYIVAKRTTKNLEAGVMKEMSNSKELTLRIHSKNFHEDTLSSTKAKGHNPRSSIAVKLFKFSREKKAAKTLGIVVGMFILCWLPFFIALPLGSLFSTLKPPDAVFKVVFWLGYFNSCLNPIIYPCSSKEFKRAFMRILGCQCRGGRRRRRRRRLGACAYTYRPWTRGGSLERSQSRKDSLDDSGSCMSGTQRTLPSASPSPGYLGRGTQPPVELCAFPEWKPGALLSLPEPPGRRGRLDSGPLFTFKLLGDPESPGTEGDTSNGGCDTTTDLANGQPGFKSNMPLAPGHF
# T1 sequence (P23944 whole entry): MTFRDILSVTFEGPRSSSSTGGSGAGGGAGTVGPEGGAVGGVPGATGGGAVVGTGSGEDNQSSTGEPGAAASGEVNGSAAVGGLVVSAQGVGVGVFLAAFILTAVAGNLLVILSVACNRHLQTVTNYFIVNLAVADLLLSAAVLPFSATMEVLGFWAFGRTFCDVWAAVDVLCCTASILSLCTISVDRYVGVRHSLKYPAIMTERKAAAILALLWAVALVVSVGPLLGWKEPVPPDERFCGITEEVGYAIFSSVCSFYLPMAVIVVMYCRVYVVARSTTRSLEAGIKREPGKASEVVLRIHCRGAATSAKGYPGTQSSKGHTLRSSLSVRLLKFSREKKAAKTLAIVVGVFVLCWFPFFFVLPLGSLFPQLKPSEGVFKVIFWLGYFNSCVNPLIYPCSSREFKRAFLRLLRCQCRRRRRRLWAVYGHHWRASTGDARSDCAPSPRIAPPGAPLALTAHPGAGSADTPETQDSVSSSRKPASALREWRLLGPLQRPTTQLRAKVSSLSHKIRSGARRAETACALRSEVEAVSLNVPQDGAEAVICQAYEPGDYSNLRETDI
# T1 sequence (P43140 whole entry): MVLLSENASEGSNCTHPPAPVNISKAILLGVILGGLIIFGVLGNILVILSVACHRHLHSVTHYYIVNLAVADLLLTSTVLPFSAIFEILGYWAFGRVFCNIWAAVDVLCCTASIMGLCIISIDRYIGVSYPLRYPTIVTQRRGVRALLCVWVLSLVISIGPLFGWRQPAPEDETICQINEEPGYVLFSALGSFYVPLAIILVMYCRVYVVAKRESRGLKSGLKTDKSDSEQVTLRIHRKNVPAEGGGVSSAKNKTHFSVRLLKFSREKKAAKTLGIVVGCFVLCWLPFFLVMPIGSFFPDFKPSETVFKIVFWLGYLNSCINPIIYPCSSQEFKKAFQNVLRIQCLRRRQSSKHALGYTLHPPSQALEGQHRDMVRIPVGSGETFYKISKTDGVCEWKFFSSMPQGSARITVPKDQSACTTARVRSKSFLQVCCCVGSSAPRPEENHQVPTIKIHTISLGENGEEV
# Canis familiaris [3] = assay: Renal blood flow was determined at cumulative dose of 0.03 mg/kg in anesthetized dogs by intravenous administration after SCH 23390 pretreatment; assay type: functional, Canis lupus familiaris, Kidney
# Canis familiaris [4] = assay: Mean arterial blood pressure was determined at cumulative dose of 0.3 mg/kg in anesthetized dogs by intravenous administration after SCH 23390 pretreatment; assay type: functional, Canis lupus familiaris
# Canis familiaris [5] = assay: Mean arterial blood pressure (MABP) was evaluated in anesthetized dog after intravenous administration of 1 mg/kg of compound; assay type: functional, Canis lupus familiaris
# Canis familiaris [6] = species: Canis familiaris; assay: Dose required to reduce blood pressure by 15% (ED15) was calculated.; assay type: functional; details: Canis lupus familiaris
# [7] = molecular target: T2, Adrenergic receptor alpha-2 (Rattus norvegicus, UniProt P22086+P19328+P22909); assay: Ability to inhibit 50% specific binding of [3H]-p-amino clonidine radioligand to alpha-2 adrenergic receptor in rat cerebrocortex; assay type: tissue-based, Cortex
# T2 sequence (P22086 whole entry): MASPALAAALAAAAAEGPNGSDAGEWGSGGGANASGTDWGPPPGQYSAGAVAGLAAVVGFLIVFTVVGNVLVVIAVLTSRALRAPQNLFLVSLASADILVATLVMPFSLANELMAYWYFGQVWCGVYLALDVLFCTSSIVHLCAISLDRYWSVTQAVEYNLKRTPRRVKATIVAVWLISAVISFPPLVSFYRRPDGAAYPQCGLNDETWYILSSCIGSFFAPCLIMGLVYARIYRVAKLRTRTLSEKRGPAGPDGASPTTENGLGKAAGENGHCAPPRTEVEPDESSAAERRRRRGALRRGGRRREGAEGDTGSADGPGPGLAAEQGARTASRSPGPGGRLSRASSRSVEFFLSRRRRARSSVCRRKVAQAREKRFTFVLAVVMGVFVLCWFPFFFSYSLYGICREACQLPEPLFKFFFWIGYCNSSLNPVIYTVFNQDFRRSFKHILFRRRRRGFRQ
# T2 sequence (P19328 whole entry): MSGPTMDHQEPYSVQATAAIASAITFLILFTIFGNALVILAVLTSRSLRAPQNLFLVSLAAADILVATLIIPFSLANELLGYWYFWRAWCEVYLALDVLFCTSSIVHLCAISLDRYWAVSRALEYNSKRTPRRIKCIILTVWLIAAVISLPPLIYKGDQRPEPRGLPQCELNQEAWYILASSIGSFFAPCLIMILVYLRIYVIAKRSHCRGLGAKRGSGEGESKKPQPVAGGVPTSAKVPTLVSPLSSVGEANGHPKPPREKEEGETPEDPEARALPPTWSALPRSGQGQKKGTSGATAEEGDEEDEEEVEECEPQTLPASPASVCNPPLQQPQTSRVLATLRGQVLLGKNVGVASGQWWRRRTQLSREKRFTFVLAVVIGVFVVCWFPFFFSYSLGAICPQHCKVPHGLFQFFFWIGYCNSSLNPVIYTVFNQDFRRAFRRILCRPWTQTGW
# T2 sequence (P22909 whole entry): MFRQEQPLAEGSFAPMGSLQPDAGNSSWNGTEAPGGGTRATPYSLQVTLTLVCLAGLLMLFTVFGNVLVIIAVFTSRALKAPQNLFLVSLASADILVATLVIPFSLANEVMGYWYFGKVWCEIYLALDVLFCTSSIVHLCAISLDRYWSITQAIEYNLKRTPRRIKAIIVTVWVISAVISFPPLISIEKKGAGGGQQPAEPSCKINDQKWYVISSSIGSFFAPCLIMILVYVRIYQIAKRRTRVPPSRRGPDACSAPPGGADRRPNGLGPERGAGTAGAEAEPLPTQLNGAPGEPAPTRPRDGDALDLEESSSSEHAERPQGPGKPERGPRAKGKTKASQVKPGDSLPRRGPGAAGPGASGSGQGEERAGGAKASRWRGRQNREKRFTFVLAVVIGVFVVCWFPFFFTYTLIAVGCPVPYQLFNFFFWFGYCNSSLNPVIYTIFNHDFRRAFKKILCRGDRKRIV
# Canis familiaris [8] = assay: Mean arterial blood pressure was determined at cumulative dose of 1 mg/kg in anesthetized dogs by intravenous administration after sulpiride pretreatment; assay type: functional, Canis lupus familiaris
# Canis familiaris [9] = assay: Mean arterial blood pressure was determined at cumulative dose of 0.3 mg/kg in anesthetized dogs by intravenous administration after sulpiride pretreatment; assay type: functional, Canis lupus familiaris
# Canis familiaris [10] = assay: Mean arterial blood pressure was determined at cumulative dose of 0.03 mg/kg in anesthetized dogs by intravenous administration after SCH 23390 pretreatment; assay type: functional, Canis lupus familiaris
# [11] = molecular target: Adrenergic receptor alpha-1 (Oryctolagus cuniculus); assay: pA2 value for phenylephrine antagonist towards at alpha-1 adrenergic receptor was determined in rabbit aorta
# Canis familiaris [12] = assay: Renal blood flow was determined at cumulative dose of 1 mg/kg in anesthetized dogs by intravenous administration after sulpiride pretreatment; assay type: functional, Canis lupus familiaris, Kidney
# Canis familiaris [13] = assay: Mean arterial blood pressure was determined at cumulative dose of 0.1 mg/kg in anesthetized dogs by intravenous administration after sulpiride pretreatment; assay type: functional, Canis lupus familiaris
# Canis familiaris [14] = assay: Renal blood flow was determined at cumulative dose of 0.3 mg/kg in anesthetized dogs by intravenous administration after SCH 23390 pretreatment; assay type: functional, Canis lupus familiaris, Kidney
# Canis familiaris [15] = assay: Renal blood flow was determined at cumulative dose of 0.01 mg/kg in anesthetized dogs by intravenous administration after sulpiride pretreatment; assay type: functional, Canis lupus familiaris, Kidney
# Canis familiaris [16] = assay: Renal blood flow was determined at cumulative dose of 0.1 mg/kg in anesthetized dogs by intravenous administration after sulpiride pretreatment; assay type: functional, Canis lupus familiaris, Kidney
# Canis familiaris [17] = assay: Mean arterial blood pressure was determined at cumulative dose of 0.01 mg/kg in anesthetized dogs by intravenous administration after SCH 23390 pretreatment; assay type: functional, Canis lupus familiaris
# Canis familiaris [18] = assay: Mean arterial blood pressure was determined at cumulative dose of 1 mg/kg in anesthetized dogs by intravenous administration after SCH 23390 pretreatment; assay type: functional, Canis lupus familiaris
# Canis familiaris [19] = assay: Renal blood flow was determined at cumulative dose of 1 mg/kg in anesthetized dogs by intravenous administration after SCH 23390 pretreatment; assay type: functional, Canis lupus familiaris, Kidney
# Canis familiaris [20] = assay: Renal blood flow was determined at cumulative dose of 0.1 mg/kg in anesthetized dogs by intravenous administration after SCH 23390 pretreatment; assay type: functional, Canis lupus familiaris, Kidney
# Canis familiaris [21] = assay: Renal blood flow was determined at cumulative dose of 0.3 mg/kg in anesthetized dogs by intravenous administration after sulpiride pretreatment; assay type: functional, Canis lupus familiaris, Kidney
# Canis familiaris [22] = assay: Renal blood flow was determined at cumulative dose of 0.03 mg/kg in anesthetized dogs by intravenous administration after sulpiride pretreatment; assay type: functional, Canis lupus familiaris, Kidney
# Canis familiaris [23] = assay: Mean arterial blood pressure was determined at cumulative dose of 0.1 mg/kg in anesthetized dogs by intravenous administration after SCH 23390 pretreatment; assay type: functional, Canis lupus familiaris
# Rattus norvegicus [24] = assay: Mean arterial blood pressure (MABP) was evaluated in chronically cannulated spontaneously hypertensive rats (SHR) after peroral administration 30 mg/kg of compound; […]; assay type: functional
# Canis familiaris [25] = assay: Mean arterial blood pressure was determined at cumulative dose of 0.01 mg/kg in anesthetized dogs by intravenous administration after sulpiride pretreatment; assay type: functional, Canis lupus familiaris
# Canis familiaris [26] = assay: Mean arterial blood pressure was determined at cumulative dose of 0.03 mg/kg in anesthetized dogs by intravenous administration after sulpiride pretreatment; assay type: functional, Canis lupus familiaris
# Rattus norvegicus [27] = assay: Mean arterial blood pressure (MABP) was evaluated in conscious hypertensive rats by peroral administration of compound at 30 mg/kg; assay type: functional; details: route oral
# Canis familiaris [28] = assay: Mean arterial blood pressure (MABP) was evaluated in anesthetized dog by intravenous administration of compound at 1 mg/kg; assay type: functional, Canis lupus familiaris
# Canis familiaris [29] = species: Canis familiaris; assay: Dose required to reduce blood pressure by 15% (ED15) was calculated; assay type: functional; details: Canis lupus familiaris
IC50 [2],IC50 [7],pA2 [11],Structure (SMILES),Max delta MABP (Canis familiaris [5]),ED15 (Canis familiaris [6]),Max delta MABP (Rattus norvegicus [24]; route oral),Max delta MABP (Rattus norvegicus [24]),other results
8 nM,800 nM,8.13,Cc1cc2c(s1)CCC(CN[C@@H]1CC[C@@H](Oc3ccccc3)[C@@H]1O)C2=O.Cl (some centres not stated),-47 mmHg,0.08 mg/kg,-70 mmHg,,Delta RBF (Canis familiaris [1]): -2%; Delta RBF (Canis familiaris [3]): -1%; Delta MABP (Canis familiaris [4]): -15%; Delta MABP (Canis familiaris [8]): -29%; Delta MABP (Canis familiaris [9]): -21%; Delta MABP (Canis familiaris [10]): -6%; Delta RBF (Canis familiaris [12]): -1%; Delta MABP (Canis familiaris [13]): -14%; Delta RBF (Canis familiaris [14]): -1%; Delta RBF (Canis familiaris [15]): 6%; Delta RBF (Canis familiaris [16]): 9%; Delta MABP (Canis familiaris [17]): -3%; Delta MABP (Canis familiaris [18]): -22%; Delta RBF (Canis familiaris [19]): -6%; Delta RBF (Canis familiaris [20]): -1%; Delta RBF (Canis familiaris [21]): 9%; Delta RBF (Canis familiaris [22]): 10%; Delta MABP (Canis familiaris [23]): -10%; Delta MABP (Canis familiaris [25]): -3%; Delta MABP (Canis familiaris [26]): -10%
55 nM,600 nM,7.28,Cc1cc2c(s1)CCC(CN[C@H]1CC[C@@H](Oc3ccccc3)[C@H]1O)C2=O (some centres not stated),-16 mmHg,3.3 mg/kg,,inactive,
45 nM,100 nM,7.4,Cc1cc2c(s1)CCC(CN[C@@H]1CC[C@@H](Oc3ccccc3)[C@H]1O)C2=O (some centres not stated),-31 mmHg,0.61 mg/kg,-34 mmHg,,
,,,COc1cc2nc(N3CCN(C(=O)c4ccco4)CC3)nc(N)c2cc1OC [PRAZOSIN],,0.1 mg/kg,,,Max delta MABP (Rattus norvegicus [27]): -45 mmHg; Max delta MABP (Canis familiaris [28]): -30 mmHg
90 nM,> 1000 nM,7.04,Cc1cc2c(s1)CCC(CN[C@H]1CC[C@@H](Oc3ccccc3)[C@@H]1O)C2=O (some centres not stated),-8 mmHg,,,inactive,ED15 (Canis familiaris [29]): > 10 mg/kg
